In patent publication US20060063162A1, “Biological marker for inflammation” (priority 2004, published 2006):

What was measured:
Assay type in all cases: cell-based, human
[1] = tested on: PSG expression in coronary arterial smooth muscle cells; assay: Microarray analysis of PSG gene expression in coronary artery smooth muscle cells after atherogenic stimuli; conditions: for PSG1 expression response / PSG 2 expression / PSG6 expression: SMCs from coronary artery; for PSG expression: coronary arterial smooth muscle cells, after treatment
Excerpt: (§1) Vein and artery respond differently to atherogenic lesion under different conditions. […] However, venous bypass grafts can develop accelerated atherosclerosis in vein graft disease for patients after bypass surgery. […] This could possibly be explained by the different roles of endothelial and smooth muscle cells in the development of atherosclerosis. Endothelial cells (EC) are critical in the initiation of atherosclerosis, while smooth muscle cells (SMC) are closely related to the evolution of the atheroma. The global gene expression responses to various atherogenic stimulations between human venous and arterial cells have been determined to identify genes that may contribute to different susceptibilities to atherosclerosis.
(§2) When gene expression of untreated saphenous vein endothelial cells (SVEC) and coronary artery endothelial cells (CAEC) were compared by microarray analysis, five isoforms (PSG1, PSG3, PSG6, PSG7 and PSG9) out of 9 isoforms in the arrays were higher (>1.5 fold and P<0.005) in SVEC than CAEC. In untreated saphenous vein smooth muscle cells (SVSM) and coronary artery smooth muscle cells (CASM), all 9 isoforms of PSGs in the arrays are expressed higher in SVSM than CASM (See Table 1). It is unlikely a false positive result from arrays, since the result was obtained from 4 separate primary cultures from two-donors and more than 5 microarray data sets, and multiple PSG isoforms had similar changes. […] In basal state, PSG expression is higher in vein than artery.
Oxidized LDL (OxLDL), a key atherogenic factor, pro-inflammatory cytokines TNFα and IL1β, as well as cytokines regulating cell proliferation, differentiation and migration like PDGF and TGFβ all up-regulate PSG expression in coronary arterial smooth muscle cells.

[2] = tested on: PSG expression in endothelial cells from vein; assay: Microarray analysis of PSG gene expression in saphenous vein endothelial cells after atherogenic stimuli; conditions: after treatment
Excerpt: as §1
When gene expression of untreated saphenous vein endothelial cells (SVEC) and coronary artery endothelial cells (CAEC) were compared by microarray analysis, five isoforms (PSG1, PSG3, PSG6, PSG7 and PSG9) out of 9 isoforms in the arrays were higher (>1.5 fold and P<0.005) in SVEC than CAEC. In untreated saphenous vein smooth muscle cells (SVSM) and coronary artery smooth muscle cells (CASM), all 9 isoforms of PSGs in the arrays are expressed higher in SVSM than CASM (See Table 1). […]

[3] = tested on: PSG expression in endothelial cells from artery; assay: Microarray analysis of PSG gene expression in coronary artery endothelial cells after atherogenic stimuli; conditions: after treatment
[4] = tested on: PSG expression in SMCs from saphenous vein; assay: Microarray analysis of PSG gene expression in saphenous vein smooth muscle cells after atherogenic stimuli
Excerpt: as §1, §2
The gene expression of PSG isoforms is quite different between the two SMCs. In SMCs from saphenous vein, TGFβ and TNFα down-regulate the expression of PSG1. TGFβ also down-regulates PSG9.

Row | Substance | PSG1 expression response [1] | PSG 2 expression [1] | PSG6 expression [1] | PSG expression [1] | PSG expression [2] | PSG expression [3] | PSG1 expression [4] | PSG9 expression [4]
1 | IL1β: pro-inflammatory cytokine | opposite responses | up-regulated | up-regulated | up-regulate | No significant change | No significant change | – | –
2 | PDGF | – | up-regulated | up-regulated | up-regulate | – | – | – | –
3 | TGFβ | opposite responses | up-regulated | up-regulated | up-regulate | – | – | down-regulate | down-regulates
4 | TNFα | – | up-regulated | up-regulated | up-regulate | No significant change | No significant change | down-regulate | –
